Results published in patent publication US9242951B2, “Covalent inhibition of bacterial quorum sensing” (priority 2009, dated 2016).
Like-named read-outs stand apart in the source and are kept apart here.

Key:
LasR [1] = molecular target: T1, LasR (Pseudomonas aeruginosa, UniProt P25084); assay: E. coli DH5-alpha LasR agonist/antagonist assay (PlasI-lacZ, beta-galactosidase); assay type: cell-based, P. aeruginosa
T1 construct: expressed in transfected cells; host or cells: E. coli DH5-alpha (pJN105L + pSC11 PlasI-lacZ)
Experimental: E. coli DH5-Alpha LasR Agonist/Antagonist Assay.
E. coli DH5-alpha harboring the LasR expression vector. pJN105L, and a plasmid-borne PlasI-lacZ fusion (pSC11) (Lee, J. H., Lequette, Y. & Greenberg, E. P. Activity of purified QscR, a Pseudomonas aeruginosa orphan quorum-sensing transcription factor. Mol Microbiol 59, 602-9 (2006)) was used to quantify quorum sensing inhibition by measuring expression levels of beta-galactosidase. Bacteria were incubated overnight in LB medium containing 100 micro-g/mL of ampicillin and 15 micro-g/mL of gentamicin. The culture was diluted at a 1:10 ratio by volume with fresh medium and further incubated until an OD600 nm of 0.3 was reached. A 96 well microtiter plate (Greiner) was prepared with the desired concentrations of inhibitors and bacteria were added to reach a final absorbance density (OD600 nm) of 0.3. Expression was induced at the edition of L-(+)-arabinose (4 mg/mL) and the plates were incubated at 37° C. for a period of 4 hours (OD600 nm of 0.45-0.5). The cultures were then assayed for beta-galactosidase activity according to the Miller assay method^46: […] were transferred to clear 96-well microtiter plates and the OD600 was recorded. […] was then added to a polypropylene-based 96-well microtiter plate containing […] of 0.1% SDS (w/v). Wells were thoroughly rinsed by pipetation, after which the chloroform was allowed to settle. […] upper layer was transferred to a fresh 96-well microtiter plate and […]-beta-D-galactopyranoside (ONPG, 4 mg/mL in phosphate buffer of pH 7) were added. The plates were incubated 35 minutes at 28° C. The reaction was terminated with the addition of […] sodium carbonate solution, and absorption at two wavelengths (550 nm, 429 nm) was recorded. Miller units were calculated using standard methods (Miller, J. H. Experiments in Molecular Genetics. 352-355 (Cold Spring Harbor Laboratories, 1972)). For antagonist experiments, a final concentration of 50 nM 3-oxo-C12-HSL was used.

[2] = system: LasI reporter coupled to the luxCDABE luminescence system; assay: P. aeruginosa wild-type strain (PA01) QS inhibition assay (luminescence reporter); assay type: cell-based; settings: for IC50: Pseudomonas aeruginosa, PAO1, read-out: IC50, inhibition of luminescence in wild type PAO1 reporter strain; for inhibition of lasI expression in PAO1-luxCDABE (virulence): FIG. 9
Experimental: P. aeruginosa Wild-Type Strain (PA01) QS Inhibition Assay.
The P. aeruginosa PA01 wild type strain harboring plasmid pKD201 containing a LasI reporter coupled to the luxCDABE luminescence system (Duan, K. & Surette, M. G. Environmental regulation of Pseudomonas aeruginosa PAO1 Las and Rhl quorum-sensing systems. J Bacteriol 189, 4827-36 (2007)), was incubated overnight in LB medium containing 300 micro-g/ml of trimethoprim. A 96-well black microtiter plate (Greiner) was prepared with the desired concentrations of inhibitors (up to 1 mM, above which growth inhibition was observed), and bacteria were added to reach a final absorbance density (OD600 nm) of 0.015. The plate was then incubated for a period of 12 hours at 37° C. During this time, luminescence measurements were performed at 10 minute intervals. The relative luminescence was then plotted against the added inhibitor concentration; IC50 values were calculated using Grafit 6.0 (Erithacus Software).

[3] = system: LasI reporter coupled to the luxCDABE luminescence system; assay: P. aeruginosa PAO-JP2 QS agonist/antagonist assay (luminescence reporter); assay type: cell-based; settings: for IC50: Pseudomonas aeruginosa, read-out: IC50, 3-oxo-C12-HSL antagonist activity in PAO-JP2
Experimental: P. aeruginosa PAO-JP2 QS Agonist/Antagonist Assay.
PAO-JP2, a lasI/rhlI-deleted strain harboring plasmid pKD201 containing a LasI reporter coupled to the luxCDABE luminescence system (see above), was incubated overnight in LB medium containing 300 micro-g/ml of trimethoprim. A 96-well black microtiter plate (Greiner) was prepared as described for the PA01 inhibition assay. The relative luminescence was then plotted against the added inhibitor concentration; IC50 values were calculated using Grafit 6.0 (Erithacus Software). For antagonist experiments, a final concentration of 50 nM 3-oxo-C12-HSL was used.

LasR-LBD = molecular target: T2, LasR-LBD (Pseudomonas aeruginosa, UniProt P25084); assay: Expression of LasR-LBD in presence of probe; covalent labeling by LC-MS and soluble protein by SDS-PAGE; assay type: binding, P. aeruginosa; settings: for soluble LasR-LBD obtained on expression in presence of compound: SDS-PAGE of purified protein; for covalent modification of purified LasR-LBD (LC-MS): 10-100 micro-M compound in bacterial growth culture
T2 construct: His6; made in house; host or cells: E. coli BL21 (pETM-11)
Experimental: All MS analyses were performed on a LCQ Fleet mass spectrometer (Thermo Scientific) with an ESI source. Spectra were collected in positive ion mode and analyzed by Xcalibur and Promass software (Thermo Scientific). For LC/MS analyses a Surveyor Plus HPLC System (Thermo Scientific) was used, equipped with a Luna C18, 5 μm (150×4.6 mm) column at a flow rate of 0.5 mL/min, using a mobile phase linear gradient of 0.1% aqueous formic acid (solvent A) and CH3CN containing 0.1% formic acid (solvent B).
The expression of full length LasR was previously found to yield largely insoluble protein in the presence or absence of the native ligand, 3-oxo-C12-HSL (Bottomley, M. J., Muraglia, E., Bazzo, R. & Carfi, A. Molecular insights into quorum sensing in the human pathogen Pseudomonas aeruginosa from the structure of the virulence regulator LasR bound to its autoinducer. J Biol Chem 282, 13592-600 (2007)). Therefore, expression was performed using a strain transformed with a pETM-11 vector encoding for a shortened, His6-tagged LasR construct, LasR-LBD (ligand-binding domain), spanning residues Met-1 to Lys-173. The plasmid was transferred into E. coli BL21 and cells were incubated in 1 mL rich LB medium for 1 hour. The cells were then grown on LB agar plates containing kanamycin (50 micro-g/mL). For expression, a single colony was selected and transferred into 5 mL of rich LB medium containing kanamycin and grown overnight. Proteins were expressed in the presence of either native 3-oxo-C12-HSL or different inhibitors and purified by Ni^2+ affinity chromatography as previously described (Bottomley, M. J., Muraglia, E., Bazzo, R. & Carfi, A. Molecular insights into quorum sensing in the human pathogen Pseudomonas aeruginosa from the structure of the virulence regulator LasR bound to its autoinducer. J Biol Chem 282, 13592-600 (2007), yielding ˜70 mg of purified protein per liter of LB medium using large scale expression conditions, and ˜0.5-1 mg of purified protein from 50 mL of LB medium using small scale expression conditions. The purification process was monitored by SDS-PAGE electrophoresis and the molecular mass of the purified proteins was confirmed by mass spectrometry.
1 mL of the overnight grown cell culture was used to inoculate 1 liter of rich LB medium containing kanamycin (50 micro-g/mL) and 10-100 micro-M of 3-oxo-C12-HSL or inhibitors 7a-c and 11a-g. Cells were grown to an optical density (OD600 nm) of 0.4, after which expression was induced at 21° C. by addition of 0.2 mM isopropyl 1-thio-beta-D-galactopyranoside (IPTG) and an additional amount of ligand/inhibitor was added to the media. After reaching an OD600 nm of 1.4 (approx. 6-8 hours), cells were centrifuged at 6000 rpm, washed and resuspended in lysis buffer containing 5 mM imidazole, 300 mM NaCl, 50 mM Tris-HCl, pH 8. Cells were ultrasonicated for 2 minutes at 70% amplitude for two cycles. The lysate was centrifuged at 12,000 rpm for 30 minutes, and the supernatants were purified by Ni^2+ affinity chromatography.
Small scale expression was performed in 50 mL volume following the previous procedure. Cells were harvested by chemical lysis, adding 1 mL of lysis buffer (5 mM imidazole, 300 mM NaCl, 0.2% (v/v) Triton X-100, 0.75 μg/mL DNase-I, 0.05 mM MgCl2, 0.01 mM CaCl2, 50 mM Tris-HCl, pH 8, and 0.01% (v/v) protein inhibitor cocktail), and incubated for 60 minutes at 37° C. Cell debris was removed by centrifugation at 4,000 rpm for 15 minutes. […]

[4] = system: wild type P. aeruginosa PAO1 strain; assay: Biofilm formation of wild type PAO1 in microtiter plates; assay type: cell-based; settings: 50 micro-M, 24 h, versus DMSO
Experimental: (§1) To assess whether the reactive probes inhibit QS-regulated activities, such as biofilm formation and pyocyanin production, the wild type P. aeruginosa PAO1 strain was incubated in the presence of itc-12 and 4-Br-PHL (both at 50 micro-M), or DMSO, as a control, in microtiter plates that allow analysis of 24 h biofilm formation and in vials allowing measurement of 36 h pyocyanin production. […] However, even a partial reduction in biofilm formation may be sufficient to render the bacteria vulnerable to host responses, as not only is total biofilm mass affected upon disruption of QS, but also is its architecture, its degree of porosity and its extent of flexibility and robustness.

[5] = system: wild type P. aeruginosa PAO1 strain; assay: Pyocyanin production of wild type PAO1; assay type: cell-based; settings: 50 micro-M, 36 h, versus DMSO
Experimental: as §1

LasR [6] = molecular target: T1, LasR; settings: read-out: IC50 reported by Geske et al.; E. coli-based LasR antagonist assay, literature value; cited from earlier work
LasR-LBD Cys79Ala mutant = molecular target: T3, LasR-LBD Cys79Ala mutant (Pseudomonas aeruginosa, UniProt P25084, C79A); assay: Expression of LasR-LBD Cys79Ala mutant in presence of probe, covalent labeling; assay type: binding, P. aeruginosa
T3 construct: His6; made in house; host or cells: bacteria (E. coli BL21 as for wild-type LasR-LBD, inferred)

[7] = molecular target: T4, LasR-LBD Cys79Ser mutation (Pseudomonas aeruginosa, UniProt P25084, C79S); assay: Expression of LasR-LBD Cys79Ser mutant in presence of probe, covalent labeling; assay type: binding, P. aeruginosa
T4 construct: His6; made in house; host or cells: bacteria (E. coli BL21 as for wild-type LasR-LBD, inferred)
T4 sequence (P25084 1-173 C79S): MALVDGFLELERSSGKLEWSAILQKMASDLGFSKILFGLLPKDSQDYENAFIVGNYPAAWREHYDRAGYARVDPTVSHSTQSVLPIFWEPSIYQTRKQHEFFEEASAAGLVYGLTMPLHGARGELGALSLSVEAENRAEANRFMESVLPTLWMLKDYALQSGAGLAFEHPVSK

T2 sequence (P25084 1-173): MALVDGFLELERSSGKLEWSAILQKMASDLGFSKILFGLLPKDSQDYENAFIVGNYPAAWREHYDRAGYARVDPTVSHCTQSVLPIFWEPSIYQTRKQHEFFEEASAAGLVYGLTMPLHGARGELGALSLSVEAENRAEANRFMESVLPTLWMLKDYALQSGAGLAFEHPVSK
T1 sequence (P25084 whole entry): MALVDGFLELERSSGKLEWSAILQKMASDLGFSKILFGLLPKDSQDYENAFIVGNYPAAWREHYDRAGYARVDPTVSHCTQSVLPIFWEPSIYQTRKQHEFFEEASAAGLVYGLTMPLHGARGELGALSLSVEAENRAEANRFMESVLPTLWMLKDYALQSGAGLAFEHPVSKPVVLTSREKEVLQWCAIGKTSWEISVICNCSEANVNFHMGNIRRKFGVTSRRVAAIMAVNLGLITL
T3 sequence (P25084 1-173 C79A): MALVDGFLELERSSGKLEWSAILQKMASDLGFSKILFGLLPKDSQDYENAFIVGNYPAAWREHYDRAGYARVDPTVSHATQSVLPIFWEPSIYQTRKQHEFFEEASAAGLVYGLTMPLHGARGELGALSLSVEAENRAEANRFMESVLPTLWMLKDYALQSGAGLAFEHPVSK

SMILES | IC50 (LasR [1]) [µM] | IC50 [2] [µM] | IC50 [3] [µM] | covalent modification of purified LasR-LBD (LC-MS) (LasR-LBD) | further results
O=C(Cc1ccc(Br)cc1)NC1CCOC1=O (stereo not drawn) [4-Br-PHL, 2-(4-bromophenyl)-N-(2-oxo-tetrahydrofuran-3-yl)-acetamide, reference compound] | 4.8 ± 0.5 | ~250 | ~200 | – | soluble LasR-LBD obtained on expression in presence of compound (LasR-LBD): no soluble LasR was observed; inhibition of biofilm formation [4]: significantly inhibited; inhibition of pyocyanin production [5]: significantly inhibited; IC50 (LasR [6]): 3.9 µM
[N-]=[N+]=NCCCCCCCCCC(=O)CC(=O)NC1CCOC1=O (stereo not drawn) [azido-C12, 12-azido-3-oxo-N-(2-oxotetrahydrofuran-3-yl)dodecanamide] | – | – | – | no covalently labeled product | inhibitory activity compared with itc-12 ([3]; data not shown): significantly lower than that of itc-12
O=C(CCCCCCCCNC(=O)CBr)CC(=O)N[C@H]1CCOC1=O [hal-11-Br] | 26.8 ± 1.3 | – | – | – | –
O=C(CCCCCCCCNC(=O)CCl)CC(=O)N[C@H]1CCOC1=O [hal-11-Cl] | 3.1 ± 0.1 | – | – | – | –
O=C(CCCCCCCCCNC(=O)CCl)CC(=O)N[C@H]1CCOC1=O [hal-12-Cl] | – | – | 70 ± 27 | – | IC50 (LasR [1]; antagonism of LasR activation by 50 nM 3-oxo-C12-HSL, E. coli reporter, read-out: IC50, E. coli-based LasR antagonist studies): 1.1 ± 0.1 µM
O=C(CCCCCCCCN=C=S)CC(=O)NC1CCOC1=O (stereo not drawn) [itc-11, 11-isothiocyanato-3-oxo-N-(2-oxotetrahydrofuran-3-yl)undecanamide] | 39.1 ± 9.4 | ~300 | – | covalently modified | –
O=C(CCCCCCCCCN=C=S)CC(=O)NC1CCOC1=O (stereo not drawn) [itc-12, 12-isothiocyanato-3-oxo-N-(2-oxotetrahydrofuran-3-yl)dodecanamide] | 29.8 ± 0.5 | 113 ± 19 | 134 ± 6 | covalently modified | inhibition of lasI expression in PAO1-luxCDABE (virulence) [2]: dose-dependent manner; agonism in PAO-JP2-based reporter ([3]; markedly reduced levels compared to natural autoinducer): partial agonism patterns; soluble LasR-LBD obtained on expression in presence of compound (LasR-LBD): larger amounts of soluble LasR-LBD; soluble protein, LasR-LBD Cys79Ala mutant (LasR-LBD Cys79Ala mutant): Soluble protein was, however, obtained; covalent modification of LasR-LBD Cys79Ala mutant (LasR-LBD Cys79Ala mutant; data not shown): no covalent modification was detected; covalent modification of LasR-LBD Cys79Ser [7]: no covalent modification being observed; soluble protein, LasR-LBD Cys79Ser [7]: yielded expression of soluble protein; inhibition of biofilm formation [4]: significantly inhibited; inhibition of pyocyanin production [5]: significantly inhibited
O=C(CCCCCCCCCCN=C=S)CC(=O)NC1CCOC1=O (stereo not drawn) [itc-13, 13-isothiocyanato-3-oxo-N-(2-oxotetrahydrofuran-3-yl)tridecanamide] | 19.2 ± 3.9 | 45.2 ± 0.7 | 30 ± 7 | – | –
O=C(CCCCCCCCCS)CC(=O)NC1CCOC1=O (stereo not drawn) [thiol-11, 12-Mercapto-3-Oxo-N-(2-Oxotetrahydrofuran-3-yl)Dodecanamide] | – | – | – | – | inhibition of lasI expression in PAO1-luxCDABE (virulence) [2]: dose-dependent manner
